Values after ≈ are worked out from the molar mass of the structure shown. Values joined by “and” are separate entries in the source; they are usually repeats but may differ in a detail not shown here. Identical values can stand only once. Like-named read-outs stand apart in the source and are kept apart here.
Assays:
[1] = tested on: influenza virus (K09) expressing GFP; assay type: cell-based; set-up: key: ◯ = effective; X = ineffective
[2] = tested on: novel influenza virus (K09); test: microbe, parasite or virus in culture; assay type: cell-based; conditions: for EC50: MDCK, 72 h, read-out: Plaque reduction (Experimental Example 2) EC50
[3] = Cytotoxicity assay using MTT; assay type: cell-based; conditions: dog, MDCK cells infected with influenza virus (K09), MDCK cell infected with K09; compound 24 hours; read-out: MTT assay (Experimental Example 3) CC50
Experimental: (§1) In this experiment, a cell was infected with a virus, and then the virus was directly treated with a compound so as to determine if the virus-infected cell has toxicity. For this, a cell (MDCK) was infected with an influenza virus (K09) for 1 hour, and treated with the compound with different concentrations for 24 hours. Then, the cell was treated with a MTT reagent for 1 hour. After 1 hour, a formazan crystal produced by the MTT reagent was dissolved in DMSO, and the absorbance was measured by an ELISA reader so as to determine CC50.
(§2) measured by MTT assay. A maximum concentration of the compound, at which the number of cells is reduced to half or more compared to that of a control group

[4] = tested on: novel influenza virus (B/Field); test: microbe, parasite or virus in culture; assay type: cell-based
[5] = tested on: H1N1 influenza virus (solomon); test: microbe, parasite or virus in culture; assay type: cell-based
[6] = Acute toxicity test through oral administration in a rat; assay type: in vivo; conditions: male SD-Rat, single oral administration, 14 days observation; for LD50 at 14 days: Sprague-Dawley (SD), in vivo
Experimental: The acute toxicity of the inventive compound was determined through oral administration in a rat. Since the compound is expected to be orally administered in a clinical situation, an oral administration route was selected. A male rat aged 6 weeks (SD-Rat, 220±30 g) was subjected to quarantine, and acclimated for 1 week under a condition of lighting of 12 hours (08:00˜20:00), and luminance of 150-300 Lux at 22±3° C. at a relative humidity of 50±20%, while being freely fed with feed and water. Each of a control group and an experimental group include 8 rats. The control group was orally administered with 0.5% HPMC, and the experimental group was orally administered with a material (different concentrations) suspended in 0.5% HPMC, by using a sonde in an amount in proportion to the measured weight of each individual.
The concentration of the drug administered to the experimental group was set as 2000 mg/kg (the highest concentration for a single dose administration in a non-clinical test), and 1000 mg/kg, and 500 mg/kg (with a common ratio). For 14 days from drug administration, clinical symptoms were observed while the weight change was measured. Test animals that died during the test were subjected to autopsy, and abnormalities of main organs (heart, liver, lung, spleen, kidney, and large intestine) were observed and recorded. On the last day of the test (on the 14th day from the administration), all individuals were subjected to autopsy, and the changes of the organs caused by a test material were observed and compared to those in the control group. In the control group, no rats had died, and abnormalities were not observed through autopsy.
Each group was orally administered in a concentration of 500 mg/kg, 1000 mg/kg, and 2000 mg/kg. For 14 days from the administration, according to the test method, clinical symptoms were observed. […] Also, in the groups administered in various amounts, no individuals died. […] Further, no abnormal responses were observed, and from the autopsy results, no peculiarities were observed.

[7] = tested on: cell (MDCK) infected with an influenza virus (K09); test: Cytotoxicity assay using MTT; assay type: cell-based; conditions: compound 24 hours
Experimental: as §1, §2

[8] = Influenza A virus, Solomon (H1N1), read-out: EC50

Compound | GFP reduction (Experimental Example 1) effect [1] | SI value K09 ([2]; K09, CC50/EC50) | EC50 [2] | CC50 at 24 h [3] | EC50 ([4]; unidentified influenza virus) | EC50 [5, 8] | SI value ([5]; Solomon (H1N1), CC50/EC50) | LD50 at 14 days [6] | Plaque reduction (Experimental Example 2) EC50 [2] | SI value K09 [2] | MTT assay (Experimental Example 3) CC50 [7] | SI value [4] | EC50 ([4]; B/Field) | SI value [5] | EC50 ([5]; Solomon (H1N1)) | LD50 [6] | SI value ([4]; B/Field, CC50/EC50) | Plaque reduction (Experimental Example 2) EC50 ([2]; K09, MDCK cell, 72 hours)
COc1cccc(N2CCN(C(=O)c3c(-c4ccccc4C(F)(F)F)noc3C)CC2)c1 [Example 3, (4-(3-methoxyphenyl)piperazine-1-yl)(5-methyl-3-(2-(trifluoromethyl)phenyl)isoxazol-4-yl)methanone] | ◯ | 473.84 to 1903.03 | 0.33 to 0.65 µg/mL (≈ 0.741 to 1.46 µM) | 308 to 628 µg/mL (≈ 691 to 1410 µM) | > 50 µg/mL | 0.064 to 0.094 µg/mL (≈ 0.144 to 0.211 µM) | 3276.59 to 9812.50 | > 2000 mg/kg | – | – | – | – | – | – | – | – | – | –
COc1ccccc1N1CCN(C(=O)c2c(-c3ccccc3C(F)(F)F)noc2C)CC1 [Example 4] | ◯ | – | – | – | – | – | – | – | 12.5 to 25 µg/mL | 3.125 to 12.5 | 78.12 to 156.25 µg/mL and 78.125 to 156.25 µg/mL | 1.563> | 50< μg/ml | 6.25 to 12.5 | 12.5 µg/mL (≈ 28.1 µM) | 2,000< mg/kg | – | –
COc1cccc(N2CCN(C(=O)c3c(-c4ccccc4Cl)noc3C)CC2)c1 [Example 9, (3-(2-chlorophenyl)-5-methylisoxazol-4-yl)(4-(3-methoxyphenyl)piperazine-1-yl)methanone] | ◯ | 801.282 to 3205.128 | 0.195 to 0.39 µg/mL (≈ 0.473 to 0.947 µM) | 312 to 625 µg/mL (≈ 759 to 1520 µM) | > 50 µg/mL | 0.048 to 0.097 µg/mL (≈ 0.117 to 0.236 µM) | 3221.649 to 13020.833 | > 2000 mg/kg | – | – | – | – | – | – | – | – | – | –
Cc1onc(-c2cccc(F)c2)c1C(=O)N1CCN(c2ccc(Cl)c(Cl)c2)CC1 [Example 11, (4-(3,4-dichlorophenyl)piperazine-1-yl)(3-(3-fluorophenyl)-5-methylisoxazol-4-yl)methanone] | ◯ | – | < 0.16 µg/mL | 287 to 625 µg/mL (≈ 661 to 1440 µM) | 4.25 µg/mL (≈ 9.79 µM) | 0.087 to 0.199 µg/mL (≈ 0.2 to 0.458 µM) | 1442.211 to 7183.908 | > 2000 mg/kg | – | – | – | – | – | – | – | – | 67.529 to 147.058 | –
COc1cccc(N2CCN(C(=O)c3c(-c4cccc(F)c4)noc3C)CC2)c1 [Example 12, (3-(3-fluorophenyl)-5-methylisoxazol-4-yl)(4-(3-methoxyphenyl)piperazine-1-yl)methanone] | ◯ | 25 to 50 | 3.12 µg/mL (≈ 7.9 µM) | 78.1 to 156 µg/mL (≈ 198 to 395 µM) | > 50 µg/mL | 0.781 µg/mL (≈ 1.98 µM) | 100.032 to 200.064 | > 2000 mg/kg | – | – | – | – | – | – | – | – | – | –
Cc1onc(-c2cccc(F)c2)c1C(=O)N1CCN(c2ccccc2O)CC1 [Example 16, (3-(3-fluorophenyl)-5-methylisoxazol-4-yl)(4-(2-hydroxyphenyl)piperazine-1-yl)methanone] | ◯ | 200.321 | 0.39 µg/mL (≈ 1.02 µM) | 78.1 µg/mL (≈ 205 µM) | 25 µg/mL (≈ 65.5 µM) | 0.097 to 0.195 µg/mL (≈ 0.254 to 0.511 µM) | 400.641 to 805.412 | > 2000 mg/kg | – | – | 78.125 µg/mL | – | – | – | – | – | 3.125 | –
Cc1onc(-c2ccccc2OC(F)(F)F)c1C(=O)N1CCN(c2ccc(Cl)c(Cl)c2)CC1 [Example 35, (4-(3,4-dichlorophenyl)piperazine-1-yl)(5-methyl-3-(2-(trifluoromethoxy)phenyl)isoxazol-4-yl)methanone] | ◯ | – | 0.395 to 0.781 µg/mL (≈ 0.79 to 1.56 µM) | 312 to 625 µg/mL (≈ 625 to 1250 µM) | 6.25 µg/mL (≈ 12.5 µM) | 0.097 to 0.195 µg/mL (≈ 0.194 to 0.39 µM) | 1602.564 to 6443.298 | > 2000 mg/kg | – | – | – | – | – | – | – | – | 50 to 100 | –
COc1cccc(N2CCN(C(=O)c3c(-c4ccccc4OC(F)(F)F)noc3C)CC2)c1 [Example 36] | ◯ | 320< | – | – | – | – | – | – | – | – | 500< μg/ml | – | – | – | – | – | – | 1.56 µg/mL
COc1cccc(N2CCN(C(=O)c3c(-c4ccccc4Cl)noc3N)CC2)c1 [Example 60, (5-amino-3-(2-chlorophenyl)isoxazol-4-yl)(4-(3-methoxyphenyl)piperazine-1-yl)methanone] | ◯ | – | 0.195 µg/mL (≈ 0.473 µM) | > 500 µg/mL | 6.25 µg/mL (≈ 15.1 µM) | 0.053 to 0.094 µg/mL (≈ 0.128 to 0.228 µM) | – | > 2000 mg/kg | – | – | – | – | – | – | – | – | 80< | –
Nc1onc(-c2ccccc2OC(F)(F)F)c1C(=O)N1CCN(c2ccc(Cl)c(Cl)c2)CC1 [Example 83] | ◯ | 100.2 to 291.75 | – | – | – | – | – | – | – | – | 150.3 to 189.64 µg/mL | – | – | – | – | 2,000< mg/kg | – | 0.65 to 1.5 µg/mL
COc1cccc(N2CCN(C(=O)c3c(-c4ccccc4C(F)(F)F)noc3N)CC2)c1 [Example 92] | ◯ | 0.32 to 1.59 | – | – | – | – | – | – | – | – | 14.62 to 33.52 µg/mL | – | – | – | – | – | – | 21 to 45 µg/mL
Nc1onc(-c2ccc(OC(F)(F)F)cc2)c1C(=O)N1CCN(c2ccc(Cl)c(Cl)c2)CC1 [Example 99] | ◯ | 0.32 to 1.59 | – | – | – | – | – | – | – | – | 14.62 to 33.52 µg/mL | – | – | – | – | – | – | 21 to 45 µg/mL
CCOC(=O)C1CCN(C(=O)c2c(-c3ccccc3OC(F)(F)F)noc2N)CC1 [Example 124] | ◯ | – | – | – | – | – | – | – | 3.125 to 6.25 µg/mL | 50 to 100 | 312.5 µg/mL | 6.25> | 50< μg/ml | 50 | 6.25 µg/mL (≈ 14.6 µM) | 2,000< mg/kg | – | –
CCOC(=O)C1=C[C@@H](OC(CC)CC)[C@H](NC(C)=O)[C@@H](N)C1 [Oseltamivir, reference compound] | X | – | 0.391 µg/mL (≈ 1.25 µM) | 625 to 1250 µg/mL (≈ 2000 to 4000 µM) | 6.25 µg/mL (≈ 20 µM) | 3.12 to 6.25 µg/mL (≈ 10 to 20 µM) | 100 to 400 | > 2000 mg/kg | – | – | – | – | – | – | – | – | 200 to 100 | –

Source: patent publication US9132126B2, “Phenyl-isoxazole derivatives and preparation process thereof” (priority 2011, dated 2015)
